# Earlier results in patent publication US20260218090A1, “A LOW-TEMPERATURE, CAUSTIC DISHWARE […]” (priority 2023, published 2026).
# Where two headings read alike, the source gives them in different places.
# Tests used:
# [1] = test system: B. subtilis spores; details: NaOH 1.0 M (40,000 ppm), cited from earlier work
# [2] = test system: C. albicans; details: NaOH 0.5 M (20,000 ppm); 4 or 22 °C; detection limit less than 3 organisms/mL; cited from earlier work
# [3] = test system: S. aureus; details: NaOH 0.1 M (4,000 ppm); 4 or 22 °C; detection limit less than 3 organisms/mL; cited from earlier work
# [4] = test system: P. aeruginosa; details: NaOH 0.5 M (20,000 ppm); 22 °C; detection limit less than 3 organisms/mL; cited from earlier work
# [5] = test system: A. niger; details: NaOH 0.5 M (20,000 ppm); 4 or 22 °C; detection limit less than 3 organisms/mL; cited from earlier work
# [6] = test system: E. coli; details: NaOH 0.01 M (400 ppm); 4 or 22 °C; detection limit less than 3 organisms/mL; cited from earlier work
structure (smiles),measurement,setting,value
"[Na+].[OH-] [NaOH, sodium hydroxide]",Time for reduction of the organism below the detection limit,"[1]; 4 °C, detection limit less than 100 organisms/mL",8 days
same,Time for reduction of the organism below the detection limit,"[1]; 22 °C, detection limit 10 organisms/mL",2 days
same,Time for reduction of the organism below the detection limit,[2],1 h
same,Time for reduction of the organism below the detection limit,[3],1 h
same,Time for reduction of the organism below the detection limit,[4],1 h
same,Time for reduction of the organism below the detection limit,[5],1 h
same,Time for reduction of the organism below the detection limit,[6],2 h
